Source: article PMC4368888, “Preclinical to Clinical Translation of CNS Transporter Occupancy of TD-9855, a Novel Norepinephrine and Serotonin Reuptake Inhibitor” (International Journal of Neuropsychopharmacology, 2015)

Experiments:
NET = target: T1, NET (Rattus norvegicus, UniProt Q63380); test: Ex vivo NET occupancy in rat spinal cord with PK/PD modeling; conditions: estimate (% CV)
T1 construct: from tissue; host or cells: rat lumbar spinal cord after oral dosing
Protocol: (§1) TD-9855 Rat Administration and Sampling — Rats (n = 6/timepoint/dose level) received a single oral dose of TD-9855 (0.3, 1, 5, 10, 30, and 60mg/kg) and were euthanized by decapitation at specified time points (0.5, 2, 4, 6, and 8hr for 5mg/kg dose level; 2hr for 0.3, 1, 10, 30, and 60mg/kg dose levels) post-administration. Spinal cords were dissected for ex vivo transporter occupancy and PK assessments from the same animals. The spinal cord was harvested by hydraulic extrusion using phosphate-buffered saline, and the lumbar segment dissected and frozen on dry ice. The remaining spinal cord segments were collected and homogenized in water (25% w/w) for PK analysis. All samples were stored at -80 °C until analysis.
(§2) A kinetic radioligand binding assay was used to determine NET and SERT occupancy in rat spinal cord, as described previously ([Bourdet et al., 2012]).
(§3) Rat PK/PD Modeling — PK/PD parameters were estimated by a compartmental modeling approach (WinNonlin Version 5.0.1, Pharsight Corporation). One- and two-compartment PK models with first-order absorption and elimination were evaluated. The one-compartment model was selected. The pharmacodynamic model was an effect compartment Emax model linked directly to the central PK compartment (WinNonlin PK Model 3, PD Model 101). Selection of models was based upon best fit in terms of visual inspection, Akaike Information Criteria, and weighted residual sum of squares using the Gauss-Newton minimization method. The following parameters were estimated:
(§4) Emax (% occupancy): Maximal SERT or NET occupancy in spinal cord
(§5) keo (hr^-1): First-order equilibration rate constant between the central pharmacokinetic compartment and the pharmacodynamic effect compartment

SERT = target: T2, SERT (Rattus norvegicus, UniProt P31652); test: Ex vivo SERT occupancy in rat spinal cord with PK/PD modeling; conditions: estimate (% CV)
T2 construct: from tissue; host or cells: rat lumbar spinal cord after oral dosing
Protocol: as §1, §2, §3, §4, §5

in vivo = conditions: Sprague Dawley, rat, po
Protocol: as §1, §3
k01 (hr^-1): First-order absorption rate constant.
V/F (L/kg): Volume of the central compartment divided by oral bioavailability
k10 (hr^-1): Elimination rate constant from the central compartment

[1] = Human plasma pharmacokinetics; assay type: in vivo; conditions: 20mg single oral dose, Day 1, n = 3
Protocol: Four 6mL samples were drawn at 2, 4, 6, and 24hr post TD-9855 dosing. Three additional 6mL samples were drawn prior to each PET scan and approximately 60 and 120min after the beginning of each PET scan. Plasma samples were analyzed for TD-9855 concentrations by a validated LC-MS/MS method. The lower limit of quantification for TD-9855 was 0.05ng/mL.

[2] = design: method as in Theravance Biopharma US, Inc., data on file; conditions: rat; ref Theravance Biopharma US, Inc., data on file; cited from earlier work
rat native NET = rat native NET (Rattus norvegicus, UniProt Q63380); test: [3H]-nisoxetine binding, rat cortical membranes; design: at human recombinant and rat native monoamine transporters; from tissue; conditions: mean (95% CI), 3 to 9 experiments, read-out: Transporter Binding: pKi NET (converted)
Excerpt: The in vitro pharmacology of TD-9855 (4-[2-(2, 4, 6-trifluorophenoxymethyl)phenyl]piperidine; Figure 1) at human recombinant and rat native monoamine transporters was characterized as described previously ([Tsuruda et al., 2010]; [Shen et al., 2013]). Radioligands were sourced commercially (Perkin Elmer Life Sciences or GE Healthcare Life Sciences). Briefly, membranes prepared from HEK293 (Human Embryonic Kidney 293) cells stably-transfected with human recombinant SERT (HEK293-hSERT), NET (HEK293-hNET), or DAT ([…]) were incubated for 1hr at 22°C in the absence, or presence, of TD-9855 and [^3H]-citalopram (1.0nM) for SERT, [^3H]-nisoxetine (2.0nM) for NET, and [^3H]-WIN35428 (3.0nM) for DAT in 50mM Tris-HCl, 120mM NaCl, 5mM KCl, 0.025% BSA, 100 μM ascorbic acid, pH 7.4. Rat cortical membrane preparations were incubated with [^3H]-citalopram (2.0nM) for SERT or [^3H]-nisoxetine (4.0nM) for NET for 1hr at 22°C. […] Binding and uptake assays were terminated by rapid filtration and radioactivity, determined by liquid scintillation spectroscopy.

[3] = rat spinal cord, oral 0.3-60mg/kg
[4] = rat, equilibration rate constant plasma to effect compartment

T1 sequence (Q63380 1-617): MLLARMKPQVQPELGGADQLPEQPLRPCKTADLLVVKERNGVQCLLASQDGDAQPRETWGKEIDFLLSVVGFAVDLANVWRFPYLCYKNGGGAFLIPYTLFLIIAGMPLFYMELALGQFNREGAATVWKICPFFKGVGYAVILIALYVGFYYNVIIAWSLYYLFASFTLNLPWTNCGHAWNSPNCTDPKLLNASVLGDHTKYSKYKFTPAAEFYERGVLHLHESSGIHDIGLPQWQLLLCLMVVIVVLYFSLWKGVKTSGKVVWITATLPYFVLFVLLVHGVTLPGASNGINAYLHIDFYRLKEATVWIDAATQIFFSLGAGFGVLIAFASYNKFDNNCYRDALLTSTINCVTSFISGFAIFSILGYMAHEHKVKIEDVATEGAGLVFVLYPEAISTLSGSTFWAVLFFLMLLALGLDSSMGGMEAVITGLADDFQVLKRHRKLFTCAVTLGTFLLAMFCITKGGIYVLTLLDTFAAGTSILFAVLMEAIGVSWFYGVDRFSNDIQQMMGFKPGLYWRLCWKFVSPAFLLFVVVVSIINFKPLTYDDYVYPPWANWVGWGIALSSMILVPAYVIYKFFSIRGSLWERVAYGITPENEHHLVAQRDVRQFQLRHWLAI
T2 sequence (P31652 whole entry): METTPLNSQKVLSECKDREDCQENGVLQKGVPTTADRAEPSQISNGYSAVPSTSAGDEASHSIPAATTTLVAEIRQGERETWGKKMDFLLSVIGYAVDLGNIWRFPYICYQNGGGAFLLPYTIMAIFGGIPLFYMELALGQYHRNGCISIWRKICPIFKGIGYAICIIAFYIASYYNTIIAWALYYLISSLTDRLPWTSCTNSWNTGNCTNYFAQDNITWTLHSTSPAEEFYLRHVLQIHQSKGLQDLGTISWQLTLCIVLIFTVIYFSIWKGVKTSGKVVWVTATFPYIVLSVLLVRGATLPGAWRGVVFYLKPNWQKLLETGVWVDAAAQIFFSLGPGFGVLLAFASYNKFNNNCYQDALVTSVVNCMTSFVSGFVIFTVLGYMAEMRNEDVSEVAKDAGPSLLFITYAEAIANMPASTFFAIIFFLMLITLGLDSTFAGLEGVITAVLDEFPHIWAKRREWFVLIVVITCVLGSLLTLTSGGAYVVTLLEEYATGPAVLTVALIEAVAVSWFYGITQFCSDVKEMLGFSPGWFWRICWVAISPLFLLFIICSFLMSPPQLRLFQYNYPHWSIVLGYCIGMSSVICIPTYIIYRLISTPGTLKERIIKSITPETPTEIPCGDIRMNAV
Sequence of rat native NET (Q63380 1-617): as the sequence (Q63380 1-617) above

Fc1cc(F)c(OCc2ccccc2C2CCNCC2)c(F)c1 [TD-9855, 4-[2-(2,4,6-trifluorophenoxymethyl)phenyl]piperidine]
Emax (% Occupancy), NET (NET; [3]): 92.0 (19) % Occupancy | EC50 (NET; rat spinal cord, plasma EC50): 0.0364 µM | keo, NET (NET; [4]): 1.78 (57) hr^-1 | Emax (% Occupancy), SERT (SERT; [3]): 79.0 (53) % Occupancy | EC50 (SERT; rat spinal cord, plasma EC50): 0.158 µM | keo, SERT (SERT; [4]): 11.0 (86) hr^-1 | K01, first-order absorption rate constant (in vivo): 0.777 (108) hr^-1 | V/F (in vivo): 54.8 (66) L/kg | k el (in vivo): 8.86e-05 s⁻¹ | mean plasma concentration at SERT scan [1]: 6.35 ng/mL | plasma protein binding [2]: 90.2% | Ki (rat native NET): 0.002 µM
